# Measurements published in patent US20260274798A1, “PENTAMIDINE ANALOGUE POLYMORPHS, FORMULATIONS, AND METHODS THEREOF” (AURANSA INC., priority 2023, published 2026).
# Entries after “also recorded” stand apart in the source; their conditions may differ.
# How the values were obtained:
# Type in all cases: physicochemical
# [1] = Thermodynamic solubility in water and a pH 7.4 phosphate buffer; conditions: slurry agitated at ambient ca. 24 hours, HPLC, diacetate
# Method: (§1) 25.6 mL of 2-propanol was added to the lyophilized Compound A diacetate salt to form a slurry. The slurry was then temperature cycled between ambient and 40° C. in 4 hour cycles with agitation for ca. 24 hours. The slurry was then filtered and the isolated solids collected into a scintillation vial. A subsample was analyzed by XRPD and the vial was left uncapped to allow the solids to […] at ambient for ca. 24 hours. The material was then re-analyzed by XRPD post-drying and fully characterized using the following techniques: TG/DSC, DSC, DVS with post-DVS XRPD analysis, PLM, FT-IR, ^1H NMR, Purity by HPLC, TG/DSC with post TG/DSC XRPD analysis, and 7 Day Stability Assessment (ca. 10 mg of the material was stored at 40° C./75% RH. 80° C. and ambient light and humidity for 1 week. The solids were then analyzed by XRPD and purity obtained by HPLC). Thermodynamic solubility in water and a pH 7.4 phosphate buffer (The appropriate media was added in 100 μL aliquots to ca. 20 mg of the material to form a slurry. The samples were then sealed and agitated at ambient for ca. 24 hours before being centrifuge filtered. The isolated solids were analyzed by XRPD and the concentration of the mother liquors determined by HPLC).
# The material appears highly insoluble in the phosphate buffer with all Forms having a solubility of 0.3 mg/mL except from Form 2 which has a solubility of 0.2 mg/mL.
# [2] = Dynamic vapour sorption (DVS) with post-DVS XRPD; conditions: 25° C.
# Method: Approximately, 10-20 mg of sample was placed into a mesh vapour sorption balance pan and loaded into a DVS Intrinsic dynamic vapour sorption balance by Surface Measurement Systems. The sample was subjected to a ramping profile from 40-90% relative humidity (RH) at 10% increments, maintaining the sample at each step until a stable weight had been achieved (dm/dt 0.004%, minimum step length 30 minutes, maximum step length 500 minutes) at 25° C. After completion of the sorption cycle, the sample was dried using the same procedure to 0% RH and then a second sorption cycle back to 40% RH. Two cycles were performed. The weight change during the sorption/desorption cycles were plotted, allowing for the hygroscopic nature of the sample to be determined. XRPD analysis was then carried out on any solid retained.
# [3] = 7 Day Stability Assessment (XRPD form and HPLC purity after storage); conditions: diacetate; for one-week stability: form by XRPD: 1 week (Form 1: 2 and 7 days)
# Method: as §1
# [4] = Variable humidity X-ray powder diffraction (VH-XRPD); conditions: 30° C.
# Method: XRPD analysis was carried out on a Philips X'Pert Pro Multipurpose diffractometer equipped with a humidity chamber. The samples were scanned between 4 and 36 °2θ using Cu K radiation (α1=1.54060 A; α2=1.54443 A; β=1.39225 A; α1:α2 ratio=0.5) running in Bragg-Brentano geometry (step size 0.008 °2θ) using 40 kV/40 mA generator settings. Measurements were performed at 30° C. during the humidity profile described below: • Initial scan at 40% RH • Humidity increased to 90% RH for 105 minutes (scan after 5 and 105 minutes) • Humidity decreased to 40% RH for 10 minutes (scan after 5 minutes) • Humidity decreased to 5% RH for 60 minutes (scan taken after 60 minutes) • Humidity decreased to 0% RH for 17 hours (scan taken after 17 hours) • Humidity increased to 40% RH for 60 minutes (scan taken at 30 and 60 minutes) • Humidity increased to 60% RH for 105 minutes (scan taken at 5 and 105 minutes) • Humidity increased to 80% RH for 60 minutes (scan taken at 5 and 55 minutes)
structure (smiles),measurement,setting,value
"CC(=O)O.CC(=O)O.N=C(N)c1ccc(OCCCCCOc2ccc(C(=N)N)nc2)cc1 [Form 9, 5-((5-(4-carbamimidoylphenoxy)pentyl)oxy)picolinimidamide diacetate]",solubility,[1]; Water,44.0 mg/mL
same,solubility,[1]; pH 7.4 Phosphate Buffer,0.3 mg/mL
same,mass uptake at 90% RH,"[2]; DVS, 90% RH, diacetate",8%
same,hygroscopicity by DVS,"[2]; DVS, diacetate",hygroscopic
same,form of recovered solid by post-DVS XRPD,"[2]; after DVS cycles, diacetate",mixture of phases with peaks matching Form 9 and new peaks
same,weight loss on dehydration during DVS,[2]; below 10% RH,7.3 wt. %
same,weight increase on form change during DVS,[2]; first sorption cycle at 80% RH,5.2 wt. %
same,form change during DVS,"[2]; first sorption cycle at 80% RH, diacetate",form change to Form 2; also recorded: convert to Form 2
same,one-week stability: form by XRPD,[3]; 40° C./75% RH,remained unchanged by XRPD
same,one-week stability: form by XRPD,[3]; 80° C.,convert to Form 1
same,one-week stability: form by XRPD,[3]; ambient temperature and humidity,remained unchanged by XRPD
same,1 Week Stability,"[3]; form by XRPD after storage at 40° C./75% RH, ambient or 80° C.",Converts to pattern 1 at 80 °C
same,form by VH-XRPD,[4]; 90% RH,convert to Form 2
same,form by VH-XRPD,[4]; drying at 0% RH,becomes poorly crystalline
